In experiment [1] the target is T1, uPAR-expressing HEC-265 human endometrial adenocarcinoma cells (Homo sapiens, UniProt Q03405).
T1 construct: Cell surface uPAR-expressing HEC-265 human endometrial adenocarcinoma cells; host or cells: HEC-265
Description: Competitive FACS binding assay. Conditions: pIC50 category of FACS binding. The gist of the method: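 HEC-265 cells incubated 1 h at 4 °C with 10 nM biotinylated uPAR peptide tracer plus increasing test compound, then stained with APC-streptavidin on ice. Median APC fluorescence by flow cytometry; 4PL fit gives pIC50.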

The target of experiment [2] is T2, human uPAR (uPAR-Fc) (Homo sapiens, UniProt Q03405).
T2 construct: comprising amino acids Leu23-Arg303 according to UniProt entry Q03405.1; purchased R&D Systems 10378-UK-100
Description: Surface plasmon resonance (SPR) assay, single cycle kinetics. The experiment is classed as binding. Conditions: pKD category for uPAR SPR activity assay, uPAR-Fc on Protein A-Chip, 25°C, read-out: pKD CAT (converted). Put shortly:
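uPAR-Fc (Leu23-Arg303 extracellular domains, human IgG1 Fc) captured on Protein A chip to ~2000 RU; single-cycle kinetics at 25°C in HEPES running buffer pH 7.4 with 0.1% DMSO. KD from double-referenced sensorgrams fitted to 1:1 Langmuir model, reported as pKD.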

Like-named read-outs stand apart in the source and are kept apart here. *1 amine or outer side, *2 acyl side, *3 side chain or, on linkers, in order; H or OH if unused. Where a SMILES comes first, the peptide text is derived from it. Bridges are numbered along the chain shown (N, C = ends). [ ]: non-standard residue; d: D form. The star is where a group is joined. DOTA = O=C(O)CN1CCN(CC(=O)O)CCN(CC(=O)*)CCN(CC(=O)O)CC1; Phe(4-CONH2) = NC(=O)c1ccc(C[C@H](N)C(=O)O)cc1; Pro(cis-4-F) = O=C(O)[C@@H]1C[C@H](F)CN1; Hyp = O=C(O)[C@@H]1C[C@@H](O)CN1; 3Pal = N[C@@H](Cc1cccnc1)C(=O)O; Pentanoyl(4-Me) = CC(C)CCC(=O)*; Cit = NC(=O)NCCC[C@H](N)C(=O)O; Butoxycarbonyl = CCCCOC(=O)*; Suc = O=C(CCC(=O)[*:2])[*:1]; Orn = NCCC[C@H](N)C(=O)O; Nva = CCC[C@H](N)C(=O)O; Pentanoyl = CCCCC(=O)*; AEEA = NCCOCCOCC(=O)O

T2 sequence (Q03405 23-303): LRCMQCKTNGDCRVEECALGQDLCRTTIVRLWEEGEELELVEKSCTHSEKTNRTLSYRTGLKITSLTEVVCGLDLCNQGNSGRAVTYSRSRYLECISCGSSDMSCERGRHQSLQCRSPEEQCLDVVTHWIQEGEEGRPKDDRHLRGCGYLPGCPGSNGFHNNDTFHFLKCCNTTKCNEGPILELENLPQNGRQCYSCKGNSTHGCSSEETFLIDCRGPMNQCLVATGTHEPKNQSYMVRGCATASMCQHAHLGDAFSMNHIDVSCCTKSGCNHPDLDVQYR
T1 sequence (Q03405 23-335): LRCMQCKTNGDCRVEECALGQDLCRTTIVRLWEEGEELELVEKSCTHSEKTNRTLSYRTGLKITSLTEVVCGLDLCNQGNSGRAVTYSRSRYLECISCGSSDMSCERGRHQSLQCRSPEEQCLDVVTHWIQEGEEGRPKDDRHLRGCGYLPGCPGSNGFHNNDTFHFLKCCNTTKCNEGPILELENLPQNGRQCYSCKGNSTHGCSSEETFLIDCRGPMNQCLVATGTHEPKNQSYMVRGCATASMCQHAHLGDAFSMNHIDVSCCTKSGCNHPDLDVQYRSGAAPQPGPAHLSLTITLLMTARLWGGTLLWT

For the molecule `CC[C@H](C)[C@@H]1NC(=O)[C@@H](C)NC(=O)[C@@H]2CCCN2C(=O)[C@H](Cc2ccccc2)NC(=O)[C@H](Cc2ccc(O)cc2)NC(=O)[C@H](CC(=O)O)NC(=O)[C@H](CCCNC(N)=O)NC(=O)[C@@H](NC(=O)CCC(C)C)CSSC[C@@H](C(N)=O)NC(=O)[C@H](CC(C)C)NC1=O` [UPAR-434, iHex-[Cys-Cit-Asp-Tyr-Phe-Pro-ala-Ile-Leu-Cys]-NH2] ({Pentanoyl(4-Me)}-C[Cit]DYFP[dA]ILC-NH2; disulfide 1-10), the IC50 in experiment [1] was at most 10 nM. Further, the Kd in experiment [2] (single cycle kinetics) was below 1.58 nM.

Regarding `CCCCOC(=O)N[C@H]1CSSC[C@@H](C(N)=O)NC(=O)[C@H](CCC)NC(=O)[C@H]([C@@H](C)CC)NC(=O)[C@@H]2C[C@@H](O)CN2C(=O)[C@@H]2C[C@H](F)CN2C(=O)[C@H](Cc2ccccc2)NC(=O)[C@H](Cc2ccc(C(N)=O)cc2)NC(=O)[C@H](CCCNC(=O)CN2CCN(CC(=O)O)CCN(CC(=O)O)CCN(CC(=O)O)CC2)NC(=O)[C@H]([C@@H](C)O)NC1=O` [UPAR-276, Butoc-[Cys-Thr-Orn(DOTA)-Pcnf-Phe-4Cfp-Hyp-Ile-Nva-Cys]-NHz] (Butoxycarbonyl-CT[Orn](DOTA)[Phe(4-CONH2)]F[Pro(cis-4-F)][Hyp]I[Nva]C-NH2; disulfide 1-10), in experiment [1], the IC50 is at most 10 nM. For the same molecule, the Kd in experiment [2] is below 1.58 nM.

For the molecule `CC[C@H](C)[C@@H]1NC(=O)[C@@H](C)NC(=O)[C@@H]2CCCN2C(=O)[C@H](Cc2ccccc2)NC(=O)[C@H](Cc2ccc(O)cc2)NC(=O)[C@H](CCC(N)=O)NC(=O)[C@H](CCCNC(N)=O)NC(=O)[C@@H](NC(=O)[C@H](CC(C)C)NC(=O)COCCOCCNC(=O)CN2CCN(CC(=O)O)CCN(CC(=O)O)CCN(CC(=O)O)CC2)CSSC[C@@H](C(N)=O)NC(=O)[C@H](CC(C)C)NC1=O` [UPAR-245, DOTA-O2Oc-Leu-[Cys-Cit-Gln-Tyr-Phe-Pro-ala-Ile-Leu-Cys]-NH2] ({DOTA-AEEA}-LC[Cit]QYFP[dA]ILC-NH2; disulfide 2-11), the IC50 in experiment [1] is at most 10 nM. Further, the Kd in experiment [2] was below 1.58 nM.

Consider `CCCCC(=O)N[C@H]1CSSC[C@@H](C(N)=O)NC(=O)[C@H](CCC)NC(=O)[C@H]([C@@H](C)CC)NC(=O)[C@@H]2C[C@@H](O)CN2C(=O)[C@@H]2C[C@@H](O)CN2C(=O)[C@H](Cc2ccccc2)NC(=O)[C@H](Cc2ccc(O)cc2)NC(=O)[C@H](CCCCNC(=O)CN2CCN(CC(=O)O)CCN(CC(=O)O)CCN(CC(=O)O)CC2)NC(=O)[C@H](CCCNC(N)=O)NC1=O` [UPAR-403, Pent-[Cys-Cit-Lys(DOTA)-Tyr-Phe-Hyp-Hyp-Ile-Nva-Cys]-NH2] (Pentanoyl-C[Cit]K(DOTA)YF[Hyp][Hyp]I[Nva]C-NH2; disulfide 1-10), for which the IC50 in experiment [1] is at most 10 nM. Further, the Kd in experiment [2] (single cycle kinetics) is below 1.58 nM.

In the case of `CCCCC(=O)N[C@H]1CSSC[C@@H](C(N)=O)NC(=O)[C@H](CCC)NC(=O)[C@H]([C@@H](C)CC)NC(=O)[C@@H]2C[C@@H](O)CN2C(=O)[C@@H]2CCCN2C(=O)[C@H](Cc2ccccc2)NC(=O)[C@H](Cc2cccnc2)NC(=O)[C@H](CCCCNC(=O)CN2CCN(CC(=O)O)CCN(CC(=O)O)CCN(CC(=O)O)CC2)NC(=O)[C@H](CCCNC(N)=O)NC1=O` [UPAR-138, Pent-[Cys-Cit-Lys(DOTA)-Mpa-Phe-Pro-Hyp-Ile-Nva-Cys]-NH2] (Pentanoyl-C[Cit]K(DOTA)[3Pal]FP[Hyp]I[Nva]C-NH2; disulfide 1-10), the IC50 in experiment [1] is at most 10 nM. Further, the Kd in experiment [2] is below 1.58 nM.

Consider `CC[C@H](C)[C@@H]1NC(=O)[C@@H](C)NC(=O)[C@@H]2CCCN2C(=O)[C@H](Cc2ccccc2)NC(=O)[C@H](Cc2ccc(O)cc2)NC(=O)[C@H](CCCCNC(=O)CN2CCN(CC(=O)O)CCN(CC(=O)O)CCN(CC(=O)O)CC2)NC(=O)[C@H](CCCNC(N)=O)NC(=O)[C@@H](NC(=O)[C@H](CC(C)C)NC(=O)[C@H](CC(=O)O)NC(C)=O)CSSC[C@@H](C(N)=O)NC(=O)[C@H](CC(C)C)NC1=O` [UPAR-189, Ac-Asp-Leu-[Cys-Cit-Lys(DOTA)-Tyr-Phe-Pro-ala-Ile-Leu-Cys]-NH2] (Ac-DLC[Cit]K(DOTA)YFP[dA]ILC-NH2; disulfide 3-12), for which the IC50 in experiment [1] is at most 10 nM. Besides, the Kd in experiment [2] was below 1.58 nM.

As to `CC[C@H](C)[C@@H]1NC(=O)[C@@H]2C[C@@H](O)CN2C(=O)[C@@H]2CCCN2C(=O)[C@H](Cc2ccccc2)NC(=O)[C@H](Cc2ccc(O)cc2)NC(=O)[C@H](CCC(N)=O)NC(=O)[C@H](CCCNC(N)=O)NC(=O)[C@@H](NC(=O)CCC(C)C)CSSC[C@@H](C(N)=O)NC(=O)[C@H](CC(C)C)NC1=O` [UPAR-174, iHex-[Cys-Cit-Gln-Tyr-Phe-Pro-Hyp-Ile-Leu-Cys]-NH2] ({Pentanoyl(4-Me)}-C[Cit]QYFP[Hyp]ILC-NH2; disulfide 1-10), in experiment [1], the IC50 is at most 10 nM. In addition, the Kd in experiment [2] was below 1.58 nM.

Turning to `CC[C@H](C)[C@@H]1NC(=O)[C@@H]2CCCN2C(=O)[C@@H]2CCCN2C(=O)[C@H](Cc2ccccc2)NC(=O)[C@H](Cc2ccc(O)cc2)NC(=O)[C@H](CCCCNC(=O)CN2CCN(CC(=O)O)CCN(CC(=O)O)CCN(CC(=O)O)CC2)NC(=O)[C@H](CCCNC(N)=O)NC(=O)[C@@H](NC(=O)CCC(C)C)CSSC[C@@H](C(N)=O)NC(=O)[C@H](CC(C)C)NC1=O` [UPAR-382, iHex-[Cys-Cit-Lys(DOTA)-Tyr-Phe-Pro-Pro-Ile-Leu-Cys]-NHz] ({Pentanoyl(4-Me)}-C[Cit]K(DOTA)YFPPILC-NH2; disulfide 1-10), the IC50 in experiment [1] was at most 10 nM. Moreover, the Kd in experiment [2] (single cycle kinetics) was below 1.58 nM.

In the case of `CCCCC(=O)N[C@H]1CSSC[C@@H](C(N)=O)NC(=O)[C@H](CCC)NC(=O)[C@H]([C@@H](C)CC)NC(=O)[C@@H]2C[C@@H](O)CN2C(=O)[C@@H]2CCCN2C(=O)[C@H](Cc2ccccc2)NC(=O)[C@H](Cc2ccc(O)cc2)NC(=O)[C@H](CCCCNC(=O)CN2CCN(CC(=O)O)CCN(CC(=O)O)CCN(CC(=O)O)CC2)NC(=O)[C@H](CCCNC(N)=O)NC1=O` [UPAR-261, Pent-[Cys-Cit-Lys(DOTA)-Tyr-Phe-Pro-Hyp-Ile-Nva-Cys]-NH2] (Pentanoyl-C[Cit]K(DOTA)YFP[Hyp]I[Nva]C-NH2; disulfide 1-10), the IC50 in experiment [1] is at most 10 nM. For the same molecule, the Kd in experiment [2] was below 1.58 nM.

In experiment [1], `CCC[C@H](NC(=O)CCC(=O)O)C(=O)N[C@H]1CSSC[C@@H](C(N)=O)NC(=O)[C@H](CCC)NC(=O)[C@H]([C@@H](C)CC)NC(=O)[C@@H]2C[C@@H](O)CN2C(=O)[C@@H]2CCCN2C(=O)[C@H](Cc2ccccc2)NC(=O)[C@H](Cc2ccc(O)cc2)NC(=O)[C@H](CCCCNC(=O)CN2CCN(CC(=O)O)CCN(CC(=O)O)CCN(CC(=O)O)CC2)NC(=O)[C@H](CCCNC(N)=O)NC1=O` [UPAR-293, HO-Succinyl-Nva-[Cys-Cit-Lys(DOTA)-Tyr-Phe-Pro-Hyp-Ile-Nva-Cys]-NH2] (Suc-[Nva]C[Cit]K(DOTA)YFP[Hyp]I[Nva]C-NH2; disulfide 2-11) had an IC50 of at most 10 nM. The Kd in experiment [2] was below 1.58 nM.

In experiment [1], `CC[C@H](C)[C@@H]1NC(=O)[C@@H](CCCNC(=N)N)NC(=O)[C@@H]2CCCN2C(=O)[C@H](Cc2ccccc2)NC(=O)[C@H](Cc2ccc(O)cc2)NC(=O)[C@H](CCCCNC(=O)CN2CCN(CC(=O)O)CCN(CC(=O)O)CCN(CC(=O)O)CC2)NC(=O)[C@H](CCCNC(N)=O)NC(=O)[C@@H](NC(=O)[C@H](CC(C)C)NC(=O)[C@H](CC(=O)O)NC(C)=O)CSSC[C@@H](C(N)=O)NC(=O)[C@H](CC(C)C)NC1=O` [UPAR-306, Ac-Asp-Leu-[Cys-Cit-Lys(DOTA)-Tyr-Phe-Pro-arg-Ile-Leu-Cys]-NH2] (Ac-DLC[Cit]K(DOTA)YFP[dR]ILC-NH2; disulfide 3-12) showed an IC50 of at most 10 nM. For the same molecule, the Kd in experiment [2] is below 1.58 nM.

The record behind these values is patent publication EP4610269A1, “UROKINASE PLASMINOGEN ACTIVATOR SURFACE RECEPTOR (UPAR) LIGANDS FOR DIAGNOSTIC OR THERAPEUTIC USE” (3B Pharmaceuticals GmbH, priority 2024, dated 2025).
